Data as given in PubChem BioAssay (NCI).
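Each compound was tested at five concentrations against cells in 96-well plates for 48 hours. TGI denotes the concentration required for complete inhibition of growth.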

Legend:
Assay in all cases: NCI anticancer screen, dose series, 48 h
[1] = test system: NCI-H23 lung
[2] = test system: ACHN renal
[3] = test system: UACC-62 melanoma
[4] = test system: A549 NSCLC
[5] = test system: 786-0 renal
[6] = test system: NCI-H226 lung
[7] = test system: DU-145 prostate
[8] = test system: HT29 colon
[9] = test system: OVCAR-5 ovarian
[10] = test system: EKVX NSCLC
[11] = test system: U251 CNS
[12] = test system: SF-268 CNS
[13] = test system: HOP-92 NSCLC
[14] = test system: BT-549 breast
[15] = test system: OVCAR-3 ovarian
[16] = test system: T-47D breast
[17] = test system: LOX IMVI melanoma
[18] = test system: KM12 colon
[19] = test system: CCRF-CEM leukemia
[20] = test system: A498 renal

| Structure (SMILES) | TGI [1] | TGI [2] | TGI [3] | TGI [4] | TGI [5] | TGI [6] | TGI [7] | TGI [8] | TGI [9] | TGI [10] | TGI [11] | TGI [12] | TGI [13] | TGI [14] | TGI [15] | TGI [16] | TGI [17] | TGI [18] | TGI [19] | TGI [20] |
| --- | --- | --- | --- | --- | --- | --- | --- | --- | --- | --- | --- | --- | --- | --- | --- | --- | --- | --- | --- | --- |
| CCOC(=O)C(NC(=O)NC(C(=O)OCC)C(=O)OCC)C(=O)OCC | > 100 µM | > 100 µM | > 100 µM | > 100 µM | > 100 µM | > 100 µM | > 100 µM | > 100 µM | > 100 µM | > 100 µM | > 100 µM | > 100 µM | > 100 µM | > 100 µM | > 100 µM |  |  |  |  |  |
| c1ccc2c(c1)CCN2CCc1c[nH]c2ccccc12 | > 10 µM | > 10 µM | > 10 µM | > 10 µM | > 10 µM | > 10 µM | > 10 µM | > 10 µM | > 10 µM | > 10 µM | > 10 µM | > 10 µM | > 10 µM | > 10 µM | > 10 µM | > 10 µM | > 10 µM | > 10 µM | > 10 µM |  |
| O=C(NCCNCCO)N/N=C/c1ccc([N+](=O)[O-])cc1 | > 100 µM | > 100 µM | > 100 µM | > 100 µM | > 100 µM | > 100 µM | > 100 µM | > 100 µM | > 100 µM |  | > 100 µM | > 100 µM |  | > 100 µM | > 100 µM | > 100 µM |  | > 100 µM | > 100 µM | > 100 µM |
| CN1C(=O)C(O)CC1c1cccc(F)c1 (stereo not given) | > 100 µM | > 100 µM | > 100 µM | > 100 µM | > 100 µM | > 100 µM | > 100 µM | > 100 µM | > 100 µM | > 100 µM | > 100 µM |  | > 100 µM | > 100 µM | > 100 µM |  | > 100 µM | > 100 µM | > 100 µM | > 100 µM |
| Cc1ccc(C(=O)C#Cc2cn(C3CC(O)C(CO)O3)c(=O)[nH]c2=O)cc1 (stereo not given) | > 100 µM | > 100 µM | > 100 µM | > 100 µM | > 100 µM | > 100 µM | > 100 µM | > 100 µM |  | > 100 µM | > 100 µM | > 100 µM | 65.1 µM | > 100 µM | 60 µM | 45 µM | > 100 µM | > 100 µM |  |  |
| O=[N+]([O-])c1nccn1CC1OC(n2ccnc2[N+](=O)[O-])C(O)C(O)C1O (stereo not given) | > 100 µM | > 100 µM | > 100 µM | > 100 µM | > 100 µM | > 100 µM |  | > 100 µM | > 100 µM | > 100 µM | > 100 µM |  | > 100 µM | > 100 µM |  | > 100 µM |  | > 100 µM | > 100 µM | > 100 µM |
| Cc1cc(NS(=O)(=O)c2ccc(Nc3c4ccccc4nc4ccc(C(=O)Nc5ccc(S(=O)(=O)N=C(N)N)cc5)cc34)cc2)no1 | > 100 µM | > 100 µM | > 100 µM | > 100 µM | > 100 µM | > 100 µM | > 100 µM | > 100 µM | > 100 µM | > 100 µM | > 100 µM | > 100 µM | > 100 µM | > 100 µM | > 100 µM | > 100 µM | > 100 µM | > 100 µM | > 100 µM |  |
| N#Cc1ccc(OCc2ccc3nc(-c4ccccc4)c(Cl)nc3c2)cc1 | > 100 µM | > 100 µM | > 100 µM | > 100 µM | > 100 µM |  | > 100 µM | > 100 µM | > 100 µM | > 100 µM | > 100 µM | > 100 µM | > 100 µM | > 100 µM | > 100 µM | > 100 µM | > 100 µM | > 100 µM | > 100 µM | > 100 µM |
| CN(/N=C/c1cccs1)c1ccc([N+](=O)[O-])cc1[N+](=O)[O-] | > 100 µM | > 100 µM | > 100 µM | > 100 µM | > 100 µM |  | > 100 µM | > 100 µM |  | > 100 µM | > 100 µM | > 100 µM |  | > 100 µM | > 100 µM | > 100 µM |  | > 100 µM | > 100 µM |  |
| CN=C(N)N/N=C(\C)c1ccc2oc3ccc(/C(C)=N/NC(N)=NC)cc3c2c1 |  | > 48.8 µM | > 23.8 µM | > 100 µM | > 100 µM | 4.73 µM | > 100 µM |  | > 87 µM | > 100 µM |  |  |  | > 22.8 µM | > 100 µM |  |  | > 100 µM | 9.06 µM | > 31.3 µM |
| O=C(CC(C(=O)c1cccs1)c1ccsc1)c1ccsc1 (stereo not given) | > 100 µM | > 100 µM | > 100 µM | > 100 µM | > 100 µM |  | > 100 µM | > 100 µM | > 100 µM | > 100 µM | > 100 µM | > 100 µM | > 100 µM | > 100 µM | > 100 µM | > 100 µM | > 100 µM | > 100 µM | > 100 µM | 57.9 µM |
| O=C1C(N=Nc2ccc(-c3nc4ccccc4o3)cc2)NC(=S)N1c1ccccc1 (stereo not given) | > 100 µM | > 100 µM | > 100 µM | > 100 µM | > 100 µM | > 100 µM | > 100 µM | > 100 µM | > 100 µM | > 100 µM | > 100 µM | > 100 µM | > 100 µM | > 100 µM | 64.3 µM | > 100 µM | > 100 µM | > 100 µM | 0.679 µM |  |
| Nc1ccc(S(=O)(=O)c2ccc(NC(=O)c3cccnc3)cc2)cc1 | > 100 µM | > 100 µM | > 100 µM | > 100 µM | > 100 µM | > 100 µM | > 100 µM | > 100 µM | > 100 µM | > 100 µM | > 100 µM | > 100 µM | > 100 µM | > 100 µM | > 100 µM | > 100 µM | > 100 µM | > 100 µM |  | > 100 µM |
